Measured values as given in ChEMBL document CHEMBL5465560, “Selectivity Literature for EUbOPEN Chemogenomic Library” (2024).

Experiments:
[1] = target: Serine/threonine-protein kinase SIK2 (Homo sapiens) (UniProt Q9H0K1); experiment: Selectivity interaction (KinomeScan (DiscoverX)) EUB0001079a SIK2; conditions: at 1 µM
[2] = target: T1, Discoidin domain-containing receptor 2 (Homo sapiens) (UniProt Q16832); experiment: Selectivity interaction (KinomeScan (DiscoverX)) EUB0000618a DDR2; conditions: at 10 µM
T1 sequence (whole entry): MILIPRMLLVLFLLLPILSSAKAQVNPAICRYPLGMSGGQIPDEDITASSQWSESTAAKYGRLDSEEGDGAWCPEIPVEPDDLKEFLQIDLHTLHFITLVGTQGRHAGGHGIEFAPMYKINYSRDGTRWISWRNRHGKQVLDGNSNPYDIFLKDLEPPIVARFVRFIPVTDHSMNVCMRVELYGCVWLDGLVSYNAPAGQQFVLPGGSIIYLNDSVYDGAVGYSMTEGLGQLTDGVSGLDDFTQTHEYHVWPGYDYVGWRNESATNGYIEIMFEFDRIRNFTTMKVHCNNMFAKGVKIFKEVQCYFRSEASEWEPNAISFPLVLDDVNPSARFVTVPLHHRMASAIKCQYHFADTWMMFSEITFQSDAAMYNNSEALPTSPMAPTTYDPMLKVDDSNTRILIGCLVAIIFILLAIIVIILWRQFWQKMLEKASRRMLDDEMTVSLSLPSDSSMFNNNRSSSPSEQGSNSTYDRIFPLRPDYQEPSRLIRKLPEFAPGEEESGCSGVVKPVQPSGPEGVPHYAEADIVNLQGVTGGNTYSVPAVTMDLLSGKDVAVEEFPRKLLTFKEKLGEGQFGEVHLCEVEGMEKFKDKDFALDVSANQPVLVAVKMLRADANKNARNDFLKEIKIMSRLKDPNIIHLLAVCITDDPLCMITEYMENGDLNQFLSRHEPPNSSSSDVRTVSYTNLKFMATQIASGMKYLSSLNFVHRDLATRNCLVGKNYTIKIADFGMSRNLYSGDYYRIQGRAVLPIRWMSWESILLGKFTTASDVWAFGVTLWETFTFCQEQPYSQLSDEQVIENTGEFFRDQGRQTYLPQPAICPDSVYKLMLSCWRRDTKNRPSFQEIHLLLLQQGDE

[3] = target: Serine/threonine-protein kinase OSR1 (Homo sapiens) (UniProt O95747); experiment: Selectivity interaction (KinomeScan (DiscoverX)) EUB0000618a OXSR1; conditions: at 10 µM
[4] = target: T2, Protein kinase C zeta type (Homo sapiens) (UniProt Q05513); experiment: Selectivity interaction (SelectScreen profiling (Invitrogen)) EUB0000607a PRKCZ; conditions: at 2 µM
T2 sequence (whole entry): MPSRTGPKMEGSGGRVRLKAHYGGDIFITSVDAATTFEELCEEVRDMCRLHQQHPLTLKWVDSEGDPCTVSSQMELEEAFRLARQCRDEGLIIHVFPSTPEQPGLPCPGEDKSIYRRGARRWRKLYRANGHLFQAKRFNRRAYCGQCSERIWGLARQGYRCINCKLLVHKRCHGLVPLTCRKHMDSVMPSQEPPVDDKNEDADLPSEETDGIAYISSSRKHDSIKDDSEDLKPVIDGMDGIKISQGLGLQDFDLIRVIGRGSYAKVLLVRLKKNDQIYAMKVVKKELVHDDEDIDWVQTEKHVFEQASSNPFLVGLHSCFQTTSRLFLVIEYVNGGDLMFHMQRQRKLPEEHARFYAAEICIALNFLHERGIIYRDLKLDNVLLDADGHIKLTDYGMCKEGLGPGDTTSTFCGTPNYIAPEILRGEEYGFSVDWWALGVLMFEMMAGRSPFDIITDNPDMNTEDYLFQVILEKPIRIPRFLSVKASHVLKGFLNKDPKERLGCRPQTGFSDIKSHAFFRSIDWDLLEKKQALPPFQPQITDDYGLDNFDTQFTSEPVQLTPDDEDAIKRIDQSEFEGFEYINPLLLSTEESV

[5] = target: Protein kinase C eta type (Homo sapiens) (UniProt P24723); experiment: Selectivity interaction (KinomeScan (DiscoverX)) EUB0001619a PRKCH; conditions: at 1 µM
[6] = target: LIM domain kinase 2 (Homo sapiens) (UniProt P53671); experiment: Selectivity interaction (KinomeScan (DiscoverX)) EUB0000045b LIMK2
[7] = target: T3, Serine/threonine-protein kinase TBK1 (Homo sapiens) (UniProt Q9UHD2); experiment: Selectivity interaction (KinomeScan (DiscoverX)) EUB0000595a TBK1; conditions: at 10 µM
T3 sequence (whole entry): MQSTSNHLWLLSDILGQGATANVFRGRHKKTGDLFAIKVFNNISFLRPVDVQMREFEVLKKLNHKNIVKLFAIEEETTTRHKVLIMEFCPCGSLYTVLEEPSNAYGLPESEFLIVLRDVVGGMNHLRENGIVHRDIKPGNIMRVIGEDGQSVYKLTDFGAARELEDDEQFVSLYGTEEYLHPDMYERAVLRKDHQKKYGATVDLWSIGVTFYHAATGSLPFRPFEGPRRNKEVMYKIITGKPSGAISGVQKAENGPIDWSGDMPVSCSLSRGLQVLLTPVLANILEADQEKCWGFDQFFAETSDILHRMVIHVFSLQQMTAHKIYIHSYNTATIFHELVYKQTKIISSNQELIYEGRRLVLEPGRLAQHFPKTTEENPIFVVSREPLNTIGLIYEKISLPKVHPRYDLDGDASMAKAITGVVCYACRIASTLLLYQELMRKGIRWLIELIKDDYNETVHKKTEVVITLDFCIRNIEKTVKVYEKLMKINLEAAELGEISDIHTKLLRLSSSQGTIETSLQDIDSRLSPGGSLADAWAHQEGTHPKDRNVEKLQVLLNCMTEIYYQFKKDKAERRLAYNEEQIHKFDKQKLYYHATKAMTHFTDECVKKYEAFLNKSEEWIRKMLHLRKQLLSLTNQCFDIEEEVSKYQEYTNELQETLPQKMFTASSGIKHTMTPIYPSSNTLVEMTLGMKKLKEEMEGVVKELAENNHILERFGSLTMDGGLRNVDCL

[8] = test system: Proto-oncogene tyrosine-protein kinase receptor Ret (Homo sapiens), P07949 [Y791F]; experiment: (§1) Selectivity interaction (ProQinase) EUB0000171b RET
[9] = test system: Proto-oncogene tyrosine-protein kinase receptor Ret (Homo sapiens), P07949 [R749T]; experiment: as §1
[10] = test system: Proto-oncogene tyrosine-protein kinase receptor Ret (Homo sapiens), P07949 [R813Q]; experiment: as §1
[11] = test system: Proto-oncogene tyrosine-protein kinase receptor Ret (Homo sapiens), P07949 [M918T]; experiment: as §1
[12] = target: Rho-associated protein kinase 2 (Homo sapiens, UniProt O75116); experiment: Selectivity interaction (KinomeScan (DiscoverX)) EUB0000666a ROCK2; conditions: at 10 µM
[13] = target: Serine/threonine-protein kinase SIK3 (Homo sapiens) (UniProt Q9Y2K2); experiment: Selectivity interaction (KinomeScan (DiscoverX)) EUB0000695a SIK3; conditions: at 100 nM

Chain of Proto-oncogene tyrosine-protein kinase receptor Ret (Homo sapiens), P07949 [M918T] (P07949 whole entry M918T): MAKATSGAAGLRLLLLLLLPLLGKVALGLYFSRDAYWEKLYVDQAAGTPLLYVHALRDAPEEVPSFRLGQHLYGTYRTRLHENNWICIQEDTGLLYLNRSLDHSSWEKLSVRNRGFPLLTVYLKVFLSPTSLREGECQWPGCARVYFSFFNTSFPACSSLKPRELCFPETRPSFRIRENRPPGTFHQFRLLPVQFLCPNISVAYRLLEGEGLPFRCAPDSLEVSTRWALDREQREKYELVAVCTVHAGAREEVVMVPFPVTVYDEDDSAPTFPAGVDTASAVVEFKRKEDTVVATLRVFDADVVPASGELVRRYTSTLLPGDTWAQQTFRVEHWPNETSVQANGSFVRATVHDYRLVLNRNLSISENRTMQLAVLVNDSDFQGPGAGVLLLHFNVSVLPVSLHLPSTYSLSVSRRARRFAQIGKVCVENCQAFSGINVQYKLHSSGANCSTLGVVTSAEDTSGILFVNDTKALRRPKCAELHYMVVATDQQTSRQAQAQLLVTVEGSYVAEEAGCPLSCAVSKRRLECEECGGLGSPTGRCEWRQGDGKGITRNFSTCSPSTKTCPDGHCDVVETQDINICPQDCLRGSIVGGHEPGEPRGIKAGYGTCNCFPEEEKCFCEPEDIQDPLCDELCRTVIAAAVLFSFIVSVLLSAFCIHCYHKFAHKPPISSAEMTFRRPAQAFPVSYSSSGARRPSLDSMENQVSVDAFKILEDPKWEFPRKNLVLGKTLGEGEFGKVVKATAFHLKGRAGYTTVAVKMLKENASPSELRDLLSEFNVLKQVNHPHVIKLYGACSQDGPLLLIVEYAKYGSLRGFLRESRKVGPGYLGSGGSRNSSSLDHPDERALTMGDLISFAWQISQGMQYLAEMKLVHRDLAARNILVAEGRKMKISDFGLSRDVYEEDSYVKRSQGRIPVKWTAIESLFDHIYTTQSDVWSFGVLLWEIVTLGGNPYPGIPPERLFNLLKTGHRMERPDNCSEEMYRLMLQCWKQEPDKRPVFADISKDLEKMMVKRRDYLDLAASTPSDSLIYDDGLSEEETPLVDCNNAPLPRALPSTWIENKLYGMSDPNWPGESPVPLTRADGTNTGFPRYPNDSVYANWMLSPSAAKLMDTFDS
Chain of Proto-oncogene tyrosine-protein kinase receptor Ret (Homo sapiens), P07949 [R813Q] (P07949 whole entry R813Q): as the sequence (P07949 whole entry M918T) above, with R813Q, T918M counted along it
Chain of Proto-oncogene tyrosine-protein kinase receptor Ret (Homo sapiens), P07949 [R749T] (P07949 whole entry R749T): as the sequence (P07949 whole entry M918T) above, with R749T, T918M counted along it
Chain of Proto-oncogene tyrosine-protein kinase receptor Ret (Homo sapiens), P07949 [Y791F] (P07949 whole entry Y791F): as the sequence (P07949 whole entry M918T) above, with Y791F, T918M counted along it
Chain of LIM domain kinase 2 (Homo sapiens) (P53671 whole entry, looked up, the tested form may be a part): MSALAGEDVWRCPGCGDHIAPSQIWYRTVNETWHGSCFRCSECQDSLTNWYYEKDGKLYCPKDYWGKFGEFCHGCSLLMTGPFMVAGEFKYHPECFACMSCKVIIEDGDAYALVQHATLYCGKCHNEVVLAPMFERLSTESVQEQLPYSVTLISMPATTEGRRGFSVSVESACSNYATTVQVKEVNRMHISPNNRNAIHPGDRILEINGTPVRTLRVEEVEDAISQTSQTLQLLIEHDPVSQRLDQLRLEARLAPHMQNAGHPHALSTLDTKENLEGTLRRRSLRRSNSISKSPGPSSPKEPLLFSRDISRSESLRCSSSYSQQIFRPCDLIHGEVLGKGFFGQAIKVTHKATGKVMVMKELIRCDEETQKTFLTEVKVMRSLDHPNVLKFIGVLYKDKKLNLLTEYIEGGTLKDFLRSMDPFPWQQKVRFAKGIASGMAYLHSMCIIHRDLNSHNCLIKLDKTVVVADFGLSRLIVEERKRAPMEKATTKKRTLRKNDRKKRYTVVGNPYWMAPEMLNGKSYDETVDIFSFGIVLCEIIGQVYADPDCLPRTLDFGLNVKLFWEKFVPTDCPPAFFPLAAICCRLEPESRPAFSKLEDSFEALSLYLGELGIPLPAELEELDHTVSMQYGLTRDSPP

**Q.** How did the % of control [1] turn out when `Nc1cnc(N2CCc3cc(S(=O)(=O)Nc4c(F)cc(Cl)cc4F)cc(N4CCCC4=O)c32)nc1` [TP-020n] was run?
**A.** The % of control was 100%.

**Q.** `O[C@H]1CC[C@H](Nc2ncc3nc(Nc4c(F)cc(F)cc4F)n([C@H]4CCOC4)c3n2)CC1` was tested. Which % of control [2] did it give?
**A.** Its % of control is 89%.

**Q.** What about the % of control [3] of the same compound?
**A.** Its % of control is 100%.

**Q.** For `CNC(=O)Nc1ccc(-c2nc(N3CC4CCC(C3)O4)c3cnn(C4CCC5(CC4)OCCO5)c3n2)cc1`, which % of inhibition [4] is on record?
**A.** The % of inhibition was 8%.

**Q.** For `N#Cc1cccc(-c2c[nH]c3ncnc(N4CCOCC4)c23)c1`, which % of control [5] is on record?
**A.** The % of control was 41%.

**Q.** For `C=CC(=O)Nc1cc(-n2c(=O)ccc3cnc4ccc(-c5ccc(NS(C)(=O)=O)cc5)cc4c32)ccc1C`, which % of control ([6]; at 1 µM) is on record?
**A.** The % of control was 92%.

**Q.** And the % of control ([6]; at 10 µM)?
**A.** Its % of control is 100%.

**Q.** `COCC(=O)NC/C=C/c1ccc2ncnc(Nc3ccc(Oc4ccc(C)nc4)c(C)c3)c2c1` [CP-724714] was tested. Which % of control [7] did it give?
**A.** Its % of control is 90%.

**Q.** Which % of control ([8]; at 1 µM) does the source give for `C=CC(=O)Nc1cccc(C(=O)Nc2ccc(Nc3cc(-c4[nH]c(SC)nc4C)ccn3)cc2)c1` here?
**A.** Its % of control is 96%.

**Q.** What about the % of control ([8]; at 5 µM) of the same compound?
**A.** The % of control was 71%.

**Q.** And the % of control ([9]; at 1 µM)?
**A.** The % of control was 96%.

**Q.** What about the % of control ([9]; at 5 µM) of the same compound?
**A.** The % of control was 76%.

**Q.** And the % of control ([10]; at 1 µM)?
**A.** The % of control was 98%.

**Q.** What about the % of control ([10]; at 5 µM) of the same compound?
**A.** The % of control was 75%.

**Q.** What about the % of control ([11]; at 1 µM) of the same compound?
**A.** Its % of control is 97%.

**Q.** And the % of control ([11]; at 5 µM)?
**A.** The % of control was 82%.

**Q.** Which % of control [12] does the source give for `O=C(NOC[C@H](O)CO)c1ccc(F)c(F)c1Nc1ccc(I)cc1F` here?
**A.** The % of control was 100%.

**Q.** With `Cc1cc(F)c(C(=O)Nc2cccc(-c3nncn3C(C)C)n2)cc1-n1cnc(C2CC2)c1` as the compound, how does the % of control [13] read?
**A.** The % of control was 100%.
